From patent US20240382476A1, “ANDROGEN RECEPTOR BIOMARKERS FOR CANCER THERAPY” (priority 2021, published 2024)

Experiments:
[1] = tested on: PC-3 (AR−) prostate tumors; assay: Antitumor activity in mice bearing subcutaneously xenografted PC-3 prostate tumors; type: in vivo, nude mice; details: PC-3 (AR−) s.c. xenograft, 21-days s.c. continuous infusion by osmotic pump
Excerpt: (§1) Animal Models. Five or six-week old male nude mice were purchased from SPF Biotechnology Co., Ltd. (Beijing, China). The prostate tumor cell suspensions (PC-3 or 22RV1) were grafted subcutaneously into the flank of nude mice at a concentration of 3×10^6 cells/mouse. Eight mice whose tumor volumes length×width^2×0.5 (length×width^2×0.5) reached approximately 100 mm^3 were divided into groups. For 21-days subcutaneous (s.c.) continuous infusion, an osmotic pump containing YM155 was implanted in the dorsum of each animal. Body weight and tumor diameter were measured every 3-4 days. The results are shown in FIG. 6A (AR^−) and 6B (AR^+). Anti-tumor activities are expressed as percent inhibition of tumor growth. The percent inhibition of tumor growth on day 21/28 was calculated using following formula: Mean % Inhibition=(mean (Control)−mean (YM155))/mean (Control)*100%. The treatment was started at day 0; vertical bars, SEM.

[2] = tested on: 22RV1 (AR+) prostate tumors; assay: Antitumor activity in mice bearing subcutaneously xenografted 22RV1 prostate tumors; type: in vivo, nude mice; details: 22RV1 (AR+) s.c. xenograft; 21-days s.c. continuous infusion by osmotic pump
Excerpt: as §1

[3] = tested on: AR− and AR+ prostate carcinoma cells (PC-3, DU145, 22Rv1, LNCaP, VcaP, LNCaP clone FGC); assay: Cell treatment and proliferation assay with high content imaging; type: cell-based, human; details: 6.25-100 nM for 72 hrs (FIG. 2); 10 nM for 2-72 hrs (FIGS. 3A-3B)
Description: Cell Treatment and proliferation assay. PC-3 and DU145 cells were seeded in 96-well plates (Corning, USA) at 2000 cells/well; LNCaP, VcaP, and LNCaP clone FGC cells were seeded at 5000 cells/well; and 22Rv1 cells were seeded at 3000 cells/well. Cells were treated with 10 nM YM155 or 0.1% DMSO (VWR, USA) for different times (2, 6, 24, 48, and 72 hrs). DU145 cells were also treated with YM155 (10 nM) in further combination with etoposide (0.2 ∪M)+carboplatin (2 ∪M), etoposide (0.2 ∪M)+cisplatin (2 μM), or docetaxel (0.005 μM)+carboplatin (2 μM). At indicated times, cells were fixed with Formaldehyde (final concentration at 4 or 5%; Thermo, USA) for 30-40 minutes at room temperature. The cells were washed three times with PBS (Cellmax, China), then blocked and permeabilized with 3% BSA (Sigma, USA) in 0.5% Triton X-100 (Sigma, USA) for 2 hrs at room temperature. After discarding the supernatant, the cells were incubated with DAPI (Beyotime, China) for 10 minutes at room temperature, then washed again three times with PBS. The cells were kept in PBS and protected from light throughout experiments. The treated cells were scanned for image acquisition with CellInsight™ CX5 High-Content Screening (HSC) Platform (Thermo Fisher), equipped with filters for DAPI (Ex: 386 nm).
PC-3, DU145, 22Rv1, LNCaP, VcaP, and LNCaP clone FGC cells were seeded in 96-well plates at 2000 cells/well. […]

Substance: 1-(2-Methoxyethyl)-2-methyl-4,9-dioxo-3-(pyrazin-2-ylmethyl)-4,9-dihydro-1H-naphtho [2,3-d] imidazolium bromide [YM155]
- percent inhibition of tumor growth relative to control ([1]; day 21): 89.62%
- percent inhibition of tumor growth relative to control ([1]; day 28): 93.63%
- activity towards tumor growth relative to control [2]: no significant difference
- sensitivity of AR− versus AR+ prostate carcinoma cells to treatment (total cell count) [3]: more sensitive
